Results: US11382907B2, “Methods and compositions for treating aging-associated impairments using CCR3-inhibitors” (Alkahest, Inc., priority 2017, dated 2022)
Entries after “also recorded” stand apart in the source; their conditions may differ.

Legend:
[1] = tested on: IL-1beta mRNA; test: qPCR of IL-1beta mRNA in cortical brain tissue of mice given daily LPS; type: in vivo, C57Bl/6 mice; settings: 3-month-old mice, daily LPS IP 7 weeks, 30 mg/kg PO BID 4 weeks
Description: Snap-frozen hemibrains were dissected out into cortex, hippocampus, striatum, and thalamus. The cortex was split into three homogeneous parts and one part was used for RNA isolation. RNA was isolated using the Prolink RNA Mini Kit (Thermo Fisher Scientific #12183025). cDNA was made using Taqman RT Kit (Thermo Fisher Sci #N8080234). qPCR was run on a Quant Studio 6 using custom made Taqman Multiplex Primers for IL-1beta and GAPDH. All samples were run together on a single plate and analyzed for ddCT relative to their endogenous control first and then relative to the control group.
Three-month-old C57 mice were given daily doses of lipopolysaccharide (LPS) 0.5 mg/kg IP to induce inflammation and treated with Compound 1 for up to 4 weeks. […]

[2] = molecular target: T1, CCR3 receptor (Homo sapiens, UniProt P51677); test: CCR3 receptor internalization biomarker assay (FACS, whole blood); type: cell-based
T1 sequence (P51677 1-355): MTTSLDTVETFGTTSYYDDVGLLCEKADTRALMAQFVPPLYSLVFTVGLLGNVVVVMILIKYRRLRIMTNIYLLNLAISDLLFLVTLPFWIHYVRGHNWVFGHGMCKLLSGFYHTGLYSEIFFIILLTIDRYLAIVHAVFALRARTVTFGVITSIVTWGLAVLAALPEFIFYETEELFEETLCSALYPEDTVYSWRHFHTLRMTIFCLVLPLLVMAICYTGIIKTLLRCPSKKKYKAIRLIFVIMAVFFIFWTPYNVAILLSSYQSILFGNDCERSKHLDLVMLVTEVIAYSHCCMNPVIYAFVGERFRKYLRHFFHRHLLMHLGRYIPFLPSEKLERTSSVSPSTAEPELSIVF
Protocol: The CCR3 receptor internalization assay is FACS-based and uses human Eotaxin-1 (PreProTech, Rocky Hill, N.J.) and an anti-human CCR3 antibody labeled with APC (R&D Systems, Minneapolis, Minn.) or isotype control IgG2A antibody to monitor CCR3 receptor internalization in human eosinophils induced by human eotaxin-1 compared to naïve eosinophils. The median APC fluorescent intensity units for each sample were determined along with the mean of each set of sample triplicates.

[3] = tested on: Iba1-positive microglia; test: IHC of Iba1-positive microglia in hippocampus of mice given daily LPS; type: in vivo, C57Bl/6 mice; settings: 3-month-old mice, daily LPS IP 7 weeks, 30 mg/kg PO BID 4 weeks
Protocol: For fluorescent microscopy, the following antibodies were used in the given concentrations: GFAP, 1:500, DAKO; Iba1, 1:1000, Wako; and BrdU, 1:500, AbCam. Antigen retrieval protocol was required for BrdU (2N HCl, 37 C, 30 min) prior to blocking. The appropriate fluorescent secondary antibodies were applied the next day at a concentration of 1:300 for one hour at room temperature. Prolong Gold Mounting Media was used to coverslip the slides. Images were acquired on a light microscope at 5× magnification.
Three-month-old C57 mice were given daily doses of lipopolysaccharide (LPS) 0.5 mg/kg IP to induce inflammation and treated with Compound 1 for up to 4 weeks.
Treatment Groups: • Treatment Group 1, Vehicle treatment: 3-month-old C57 mice (n=10) received daily IP injection of LPS for 7 weeks and twice daily (BID) oral gavage (PO) treatment of vehicle solution for up to 4 weeks. • Treatment Group 2, Vehicle treatment and Oxazolone treatment: 3-month-old C57 mice (n=10) received daily IP injection of LPS for 7 weeks and twice daily (BID) oral gavage (PO) treatment of vehicle solution for up to 4 weeks. • Treatment Group 3, Compound 1 treatment and Oxazolone treatment: 3-month-old C57 mice (n=9) received daily IP injection of LPS for 7 weeks and twice daily (BID) oral gavage (PO) treatment of Compound 1, 30 mg/kg, for up to 4 weeks.

IC50 [2]: < 0.1 µM | inhibition of CCR3 receptor internalization versus plasma Compound 1 concentration ([2]; whole blood from humans treated with Compound 1, incubated with human recombinant eotaxin-1): robust concentration-dependent effect
SMILES: Cc1cc(C(=O)N(C)C)cc(NC(=O)[C@H]2CCC(=O)N2C2CCN(Cc3ccc(Cl)c(C)c3)CC2)n1 [Compound 1]
IL-1beta mRNA level in brain [1]: significant decrease in IL-1beta expression | Iba1+ immunoreactivity (total microglia) in hippocampus [3]: dramatically decreased Iba1+ immunoreactivity; also recorded: trend towards decrease
